Source: patent US20090191283A1, “TREATMENT OF HEADACHES, NECK PAIN, JOINT PAIN AND INFLAMMATORY-TYPE PAIN” (priority 2008, published 2009)

Legend:
Format in all cases: in vivo, human
[1] = system: patient with pseudotumor cerebri and morning headache from sleep apnea; test: Treatment of patient with pseudotumor cerebri; conditions: for outcome of prior treatment: patient history
Method: (III) Treatment of Patient with Pseudotumor Cerebri
A patient presented with daily pseudotumor cerebri and morning headache from sleep apnea, with an intensity of 10/10. […] Patient was treated with 0.2 mg/hr nitroglycerin patch applied 2×/day to shoulder+3 pills of 250 mg sodium selenite/day (Twin Labs)

[2] = system: patient with dermatomyositis; test: Treatment of patient with inflammatory arthropathies: dermatomyositis (case report)
Method: (c) A patient presented with a 10/10 pain level from Dermatomyositis, with the following symptoms: morning stiffness, diffuse polyarticular involvement, malaise, proximal muscle weakness, muscle tenderness
Prior treatment included narcotics, antiinflammatories, corticosteroids, disease-modifying anti-rheumatologic drugs (DMARDs) daily.
Treatment: 0.3 mg/hr nitroglycerin patch applied 2×/day (every 12 hours) to shoulder+3 pills of 250 mg sodium selenite/day (Twin Labs)

[3] = system: patients with rheumatoid arthritis; test: Treatment of patients with inflammatory arthropathies: rheumatoid arthritis (case reports)
Method: Treatment of Patient with Inflammatory Arthropathies […]
(b) A patient presented with Rheumatoid Arthritis with pain levels of 10/10 and the following symptoms: morning stiffness, diffuse polyarticular involvement, malaise, weakness, myalgias
Prior treatment included narcotics, antiinflammatories, corticosteroids daily.
Treatment: 0.1 mg/hr nitroglycerin patch applied 2×/day (every 12 hours) to shoulder+2 pills of 250 mg sodium selenite/day (Twin Labs) […]

[4] = system: patients with cervicogenic tension headaches; test: Treatment of patients with cervicogenic tension headaches (case reports)
Method: (II) Treatment of Patients with Cervicogenic Tension Headaches
(a) A patient presented with cervicogenic tension headache with “severe” neck pain with an intensity of 7 or 8/10. The frequency of headaches was everyday and prior treatment included narcotics, NTHEs, Tylenol.
Treatment: 0.4 mg/hr nitroglycerin patch initially applied 1×/day to shoulder+2 pills of 250 mg sodium selenite/day (Twin Labs)
(b) A patient presented with cervicogenic headache with an intensity of 3-4×/wk. Prior treatment included narcotics, Tylenol, NTHEs. Patient was treated with 0.2 mg/hr nitroglycerin patch applied 1×/day applied to shoulder+2 pills of 250 mg sodium selenite/day (Twin Labs)
(c) A patient presented with migraine/cervicogenic headache with a frequency of everyday and an intensity of 7/10. Prior treatment included narcotics, NTHEs, acetaminophen, morphine cream.
Treatment: 0.4 mg/hr nitroglycerin patch applied 1×/day applied to shoulder+2 pills of 250 mg sodium selenite/day (initially) then 0.1 mg/hr nitroglycerin patch applied 1×/day applied to ankle+2 pills of 250 mg sodium selenite/day
(d) A patient presented with a daily cervicogenic tension headache, with an intensity of 10/10. Prior treatment included narcotics, Tylenol, NTHEs.
Treatment: 0.2 mg/hr nitroglycerin patch applied 1×/day to shoulder+3 pills of 250 mg sodium selenite/day (Twin Labs)
(e) A patient presented with a daily cervicogenic tension headache, with an intensity of 10/10. Prior treatment included narcotics, Tylenol, NTHEs, trigger point injections
Treatment: 0.2 mg/hr nitroglycerin patch applied 1×/day to shoulder+2 pills of 250 mg sodium selenite/day (Twin Labs)
(f) A patient presented with a daily cervicogenic tension headache, with an intensity of 7-8/10. Prior treatment included narcotics, Tylenol, NTHEs, trigger point injections
(g) A patient presented with a daily cervicogenic tension headache, with an intensity of 9-10/10. Prior treatment included narcotics, Tylenol, NTHEs, trigger point injections, BoTox which worked well for 3 months but is too expensive
Treatment: 0.2 mg/hr nitroglycerin patch applied 2×/day to shoulder+3 pills of 250 mg sodium selenite/day (Twin Labs).
(h) A patient presented with a daily cervicogenic tension headache with an intensity of 5/10. Prior treatment included narcotics, Tylenol, NTHEs, trigger point injections.
(i) A patient presented with a daily cervicogenic tension headache, with an intensity of 7-8/10. Prior treatment included narcotics, Tylenol, NTHEs, trigger point injections

[5] = system: patients with migraine headaches; test: Treatment of patients with migraine headaches (case reports)
Method: (I) Treatment of Patients with Migraine Headaches […]
(d) A patient presented with an every other day migraine headache with an intensity of 10/10, and the patient stated “The headaches were so bad that I was unable to work or enjoy my life.” Prior treatment included extensive workup by neurologists.
Treatment: 0.6 mg/hr nitroglycerin patch applied 2×/day (every 12 hours) to ankle for 1 week then shoulder+2 pills of 250 mg sodium selenite/day (Twin Labs) […]

[6] = system: patient with hemicrania continua; test: Treatment of patient with hemicrania continua; conditions: patient history
Method: (II) Treatment of Patient with Hemicrania Continua
A patient presented with daily hemicrania continua with an intensity of 8-9/10. […] Patient was treated with 0.2 mg/hr nitroglycerin patch applied 2×/day to shoulder+2 pills of 250 mg sodium selenite/day (Twin Labs).

[7] = dermatomyositis patient (c), patient history

CC(=O)Nc1nnc(S(N)(=O)=O)s1 [Diamox]
outcome of prior treatment [1]: without much success

CNS(=O)(=O)Cc1ccc2[nH]cc(CCN(C)C)c2c1 [Imitrex, sumatriptan]
effect of Imitrex on treatment-induced worsened headaches ([1]; patient on nitroglycerin patch + selenite): improved

C[C@]12C=CC(=O)C=C1CC[C@@H]1[C@@H]2C(=O)C[C@@]2(C)[C@H]1CC[C@]2(O)C(=O)CO [Prednisone]
initial response to prior treatment [2, 7]: excellent response
side effects of prior treatment [2, 7]: steroid-induced osteoporotic rib and wrist fractures
side effects of prior treatment ([3]; RA patient (b), patient history, daily corticosteroids): Vertebral fractures and osteonecrosis

CNC[C@H](O)c1cccc(O)c1.Cl [SUDAFED, phenylephrine hydrochloride]
alleviation of treatment-induced headache by SUDAFED ([4]; cervicogenic patient (a) on nitroglycerin patch + selenite): unalleviated
alleviation of treatment-induced headache by SUDAFED ([4]; cervicogenic patient (g) on nitroglycerin patch + selenite): partially alleviated
alleviation of treatment-induced headache by SUDAFED ([4]; cervicogenic patient (i) on nitroglycerin patch + selenite): totally alleviated
alleviation of treatment-induced headache by SUDAFED ([4]; cervicogenic patient on nitroglycerin patch + selenite): alleviated
alleviation of treatment-induced headache by SUDAFED ([2]; dermatomyositis patient (c) on nitroglycerin patch + selenite): partially alleviated
alleviation of treatment-induced headache by SUDAFED ([3]; RA patient (a) on nitroglycerin patch + selenite): partially alleviated
alleviation of treatment-induced headache by SUDAFED ([3]; RA patient (b) on nitroglycerin patch + selenite): partially alleviated
alleviation of treatment-induced headache by SUDAFED ([3]; RA patient (d) on nitroglycerin patch + selenite): partially alleviated
alleviation of treatment-induced headache by SUDAFED ([3]; RA patient (e) on nitroglycerin patch + selenite): partially alleviated
alleviation of treatment-induced headache by SUDAFED ([5]; migraine patient (a) on nitroglycerin patch + selenite): partially alleviated
alleviation of treatment-induced headache by SUDAFED ([5]; migraine patient (b) on nitroglycerin patch + selenite): partially alleviated
alleviation of treatment-induced headache by SUDAFED ([5]; migraine patient (d) on nitroglycerin patch + selenite): not alleviated
alleviation of treatment-induced headache by SUDAFED ([5]; migraine patient (h) on nitroglycerin patch + selenite): partially alleviated
alleviation of treatment-induced headache by SUDAFED ([5]; migraine patient on nitroglycerin patch + selenite): partially alleviated
alleviation of treatment-induced headache by SUDAFED ([5]; migraine/tension patient (c) on nitroglycerin patch + selenite): not alleviated

CC1(C)O[C@@H]2[C@@H](CO[C@@]3(COS(N)(=O)=O)OC(C)(C)O[C@@H]23)O1 [Topamax]
outcome of prior treatment [1]: without much success
outcome of prior treatment ([5]; migraine patient (d), patient history): without success

CC(=O)Nc1ccc(O)cc1 [Tylenol]
outcome of prior treatment [1]: without much success
outcome of prior treatment [6]: without success
